Reference: PubChem BioAssay (NCI)
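Briefly, cells in 96-well plates were exposed to five compound concentrations for 48 h, and endpoints were estimated by linear interpolation. The concentration for full growth arrest is given as TGI.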

Columns and labels:
Assay in all cases: NCI tumour cell line growth inhibition, 48 h
A498 renal = test system: A498 renal
A549 NSCLC = test system: A549 NSCLC
CCRF-CEM leukemia = test system: CCRF-CEM leukemia
COLO 205 colon = test system: COLO 205 colon
DLD-1 colon = test system: DLD-1 colon
DMS 114 small cell lung = test system: DMS 114 small cell lung
DMS 273 small cell lung = test system: DMS 273 small cell lung
EKVX NSCLC = test system: EKVX NSCLC
HCC-2998 colon = test system: HCC-2998 colon
HCT-116 colon = test system: HCT-116 colon
HCT-15 colon = test system: HCT-15 colon
HL-60(TB) leukemia = test system: HL-60(TB) leukemia
HOP-18 NSCLC = test system: HOP-18 NSCLC
HOP-62 NSCLC = test system: HOP-62 NSCLC
HOP-92 NSCLC = test system: HOP-92 NSCLC
HT29 colon = test system: HT29 colon
IGROV1 ovarian = test system: IGROV1 ovarian
K-562 leukemia = test system: K-562 leukemia
KM12 colon = test system: KM12 colon
KM20L2 colon = test system: KM20L2 colon
LOX IMVI melanoma = test system: LOX IMVI melanoma
M19-MEL melanoma = test system: M19-MEL melanoma
MALME-3M melanoma = test system: MALME-3M melanoma
MCF7 breast = test system: MCF7 breast
MOLT-4 leukemia = test system: MOLT-4 leukemia
NCI-H226 lung = test system: NCI-H226 lung
NCI-H23 lung = test system: NCI-H23 lung
NCI-H460 lung = test system: NCI-H460 lung
NCI-H522 lung = test system: NCI-H522 lung
NCI/ADR-RES ovarian = test system: NCI/ADR-RES ovarian
OVCAR-3 ovarian = test system: OVCAR-3 ovarian
OVCAR-4 ovarian = test system: OVCAR-4 ovarian
OVCAR-5 ovarian = test system: OVCAR-5 ovarian
OVCAR-8 ovarian = test system: OVCAR-8 ovarian
P388 leukemia = test system: P388 leukemia
P388/ADR leukemia = test system: P388/ADR leukemia
RPMI-8226 leukemia = test system: RPMI-8226 leukemia
RXF 393 renal = test system: RXF 393 renal
SF-268 CNS = test system: SF-268 CNS
SF-295 CNS = test system: SF-295 CNS
SF-539 CNS = test system: SF-539 CNS
SK-MEL-2 melanoma = test system: SK-MEL-2 melanoma
SK-MEL-28 melanoma = test system: SK-MEL-28 melanoma
SK-MEL-5 melanoma = test system: SK-MEL-5 melanoma
SK-OV-3 ovarian = test system: SK-OV-3 ovarian
SN12C renal = test system: SN12C renal
SN12K1 renal = test system: SN12K1 renal
SNB-19 CNS = test system: SNB-19 CNS
SNB-75 CNS = test system: SNB-75 CNS
SNB-78 CNS = test system: SNB-78 CNS
SW-620 colon = test system: SW-620 colon
U251 CNS = test system: U251 CNS
UACC-257 melanoma = test system: UACC-257 melanoma
UACC-62 melanoma = test system: UACC-62 melanoma
UO-31 renal = test system: UO-31 renal
XF 498 CNS = test system: XF 498 CNS
786-0 renal = test system: 786-0 renal
ACHN renal = test system: ACHN renal
LXFL 529 NSCLC = test system: LXFL 529 NSCLC
M14 melanoma = test system: M14 melanoma
SR leukemia = test system: SR leukemia
TK-10 renal = test system: TK-10 renal

COC1C(O)C(n2ncc3c(SC)nc(SC)nc32)OC1C(O)CO (stereo not given)
TGI (A498 renal): > 100 µM | TGI (A549 NSCLC): > 100 µM | TGI (CCRF-CEM leukemia): > 100 µM | TGI (COLO 205 colon): > 100 µM | TGI (DLD-1 colon): > 100 µM | TGI (DMS 114 small cell lung): > 100 µM | TGI (DMS 273 small cell lung): > 100 µM | TGI (EKVX NSCLC): > 100 µM | TGI (HCC-2998 colon): > 100 µM | TGI (HCT-116 colon): > 100 µM | TGI (HCT-15 colon): > 100 µM | TGI (HL-60(TB) leukemia): > 100 µM | TGI (HOP-18 NSCLC): > 100 µM | TGI (HOP-62 NSCLC): > 100 µM | TGI (HOP-92 NSCLC): > 100 µM | TGI (HT29 colon): > 100 µM | TGI (IGROV1 ovarian): > 100 µM | TGI (K-562 leukemia): > 100 µM | TGI (KM12 colon): > 100 µM | TGI (KM20L2 colon): > 100 µM | TGI (LOX IMVI melanoma): > 100 µM | TGI (M19-MEL melanoma): > 100 µM | TGI (MALME-3M melanoma): > 100 µM | TGI (MCF7 breast): > 100 µM | TGI (MOLT-4 leukemia): > 100 µM | TGI (NCI-H226 lung): > 100 µM | TGI (NCI-H23 lung): > 100 µM | TGI (NCI-H460 lung): > 100 µM | TGI (NCI-H522 lung): > 100 µM | TGI (NCI/ADR-RES ovarian): > 100 µM | TGI (OVCAR-3 ovarian): > 100 µM | TGI (OVCAR-4 ovarian): > 100 µM | TGI (OVCAR-5 ovarian): > 100 µM | TGI (OVCAR-8 ovarian): > 100 µM | TGI (P388 leukemia): > 100 µM | TGI (P388/ADR leukemia): > 100 µM | TGI (RPMI-8226 leukemia): > 100 µM | TGI (RXF 393 renal): > 100 µM | TGI (SF-268 CNS): > 100 µM | TGI (SF-295 CNS): > 100 µM | TGI (SF-539 CNS): > 100 µM | TGI (SK-MEL-2 melanoma): > 100 µM | TGI (SK-MEL-28 melanoma): > 100 µM | TGI (SK-MEL-5 melanoma): > 100 µM | TGI (SK-OV-3 ovarian): > 100 µM | TGI (SN12C renal): > 100 µM | TGI (SN12K1 renal): > 67.4 µM | TGI (SNB-19 CNS): > 100 µM | TGI (SNB-75 CNS): > 100 µM | TGI (SNB-78 CNS): > 100 µM | TGI (SW-620 colon): > 100 µM | TGI (U251 CNS): > 100 µM | TGI (UACC-257 melanoma): > 55.8 µM | TGI (UACC-62 melanoma): > 100 µM | TGI (UO-31 renal): > 100 µM | TGI (XF 498 CNS): > 100 µM

COc1ccc(-c2cc(=O)c3cc(OC)ccc3[nH]2)cc1
TGI (786-0 renal): > 100 µM | TGI (A549 NSCLC): > 100 µM | TGI (ACHN renal): > 100 µM | TGI (CCRF-CEM leukemia): > 100 µM | TGI (COLO 205 colon): > 100 µM | TGI (DLD-1 colon): > 100 µM | TGI (DMS 114 small cell lung): > 100 µM | TGI (EKVX NSCLC): > 100 µM | TGI (HCC-2998 colon): > 100 µM | TGI (HCT-116 colon): > 100 µM | TGI (HL-60(TB) leukemia): > 100 µM | TGI (HOP-18 NSCLC): > 100 µM | TGI (HOP-62 NSCLC): > 100 µM | TGI (HOP-92 NSCLC): > 100 µM | TGI (HT29 colon): > 100 µM | TGI (IGROV1 ovarian): > 100 µM | TGI (K-562 leukemia): > 100 µM | TGI (KM12 colon): > 100 µM | TGI (KM20L2 colon): > 100 µM | TGI (LOX IMVI melanoma): > 100 µM | TGI (LXFL 529 NSCLC): > 100 µM | TGI (M14 melanoma): > 100 µM | TGI (M19-MEL melanoma): > 100 µM | TGI (MALME-3M melanoma): > 100 µM | TGI (MOLT-4 leukemia): > 100 µM | TGI (NCI-H226 lung): > 100 µM | TGI (NCI-H23 lung): > 100 µM | TGI (NCI-H522 lung): > 100 µM | TGI (OVCAR-3 ovarian): > 100 µM | TGI (OVCAR-4 ovarian): > 100 µM | TGI (OVCAR-5 ovarian): > 100 µM | TGI (OVCAR-8 ovarian): > 100 µM | TGI (RPMI-8226 leukemia): > 100 µM | TGI (RXF 393 renal): > 100 µM | TGI (SF-268 CNS): > 100 µM | TGI (SF-295 CNS): > 100 µM | TGI (SK-MEL-28 melanoma): > 100 µM | TGI (SK-MEL-5 melanoma): > 100 µM | TGI (SK-OV-3 ovarian): > 100 µM | TGI (SN12C renal): > 100 µM | TGI (SNB-19 CNS): > 100 µM | TGI (SNB-75 CNS): > 100 µM | TGI (SNB-78 CNS): > 100 µM | TGI (SR leukemia): > 100 µM | TGI (SW-620 colon): > 100 µM | TGI (TK-10 renal): > 100 µM | TGI (UACC-257 melanoma): > 100 µM | TGI (UACC-62 melanoma): > 100 µM | TGI (UO-31 renal): > 100 µM
